# In patent US10016354B2, “Compositions containing polymeric, ionic compounds comprising imidazolium groups” (BASF SE, priority 2011, dated 2018):
# Assays:
# [1] = tested on: Pseudomonas aeruginosa ATCC 27853; experiment: Minimum Inhibitory Concentration (MIC) test; format: cell-based; conditions: Table 3, known antibiotics as control; 24 h at 37° C.
# [2] = tested on: Staphylococcus aureus ATCC 29213; experiment: Minimum Inhibitory Concentration (MIC) test; format: cell-based; conditions: Table 3, known antibiotics as control; 24 h at 37° C.
structure (smiles),measurement,setting,value
CC1=C(C(=O)O)N2C(=O)[C@@H](NC(=O)[C@H](N)c3ccccc3)[C@H]2SC1 [Cephalexine],MIC Pseudomonas aeruginosa ATCC 27853 = DSM 1117,[1],>4096 µg/mL
same,MIC Staphylococcus aureus ATCC 29213 = DSM 2569,[2],4 µg/mL
